Laboratory results taken from patent US9932637B2, “Genetic polymorphisms associated with cardiovascular disorders and drug response, methods of detection and uses thereof” (CELERA CORPORATION, priority 2003, dated 2018).

Test system: patients with prior myocardial infarction (CARE study)
Test: CARE: association of SNPs with pravastatin treatment in cardiovascular events prevention (logistic regression, odds ratio pravastatin vs placebo by genotype; Table 8)
Format: in vivo, human
Conditions: for Definite Nonfatal MI, n/total (%) / Fatal CHD/Definite Nonfatal MI, n/total (%): CD6 hCV25922320, All Patients; for Fatal/Nonfatal MI (def & prob), n/total (%) / MI (Fatal/Nonfatal), n/total (%) / Nonfatal MI (def & prob), n/total (%): COL11A1 hCV8400671, All Patients
Excerpt: In order to identify genetic markers associated with acute coronary events (e.g. MI, stroke, unstable angina, congestive heart failure, etc.) or response to statin treatment for the prevention of coronary events, samples from the Cholesterol and Recurrent Events (CARE) study (a randomized multicentral double-blinded trial on secondary prevention of acute coronary events with pravastatin) (Sacks et al., 1991, Am. J. Cardiol. 68: 1436-1446) were genotyped. A well-documented myocardial infarction (MI) was one of the enrollment criteria for entry into the CARE study. Patients were enrolled in the CARE trial from 80 participating study centers. […] Patients were randomized to receive either 40 mg of pravastatin once daily or a matching placebo. The primary endpoint of the trial was death from coronary heart disease and the median duration of follow-up was 5.0 years (range, 4.0 to 6.2 years). […] Secondary endpoints of other related cardiovascular or metabolic disease events, and changes in clinical variables were also recorded in pravastatin-treated and placebo groups. All individuals included in the study had signed a written informed consent form and the study protocol was approved by the respective Institutional Review Boards (IRBs).
For genotyping SNPs in CARE patient samples, DNA was extracted from blood samples using conventional DNA extraction methods such as the QIA-amp kit from Qiagen. Genotypes were obtained on an ABI PRISM® 7900HT Sequence Detection PCR system (Applied Biosystems, Foster City, Calif.) by kinetic allele-specific PCR, similar to the method described by Germer et al. (Germer S., Holland M. J., Higuchi R. 2000, Genome Res. 10: 258-266).
Statistical analysis for association of SNPs with pravastatin treatment in cardiovascular events prevention (Table 8) was carried out using an overall logistic regression model that included an intercept, a parameter for the effect of a genotype containing two rare alleles versus a genotype containing no rare alleles, a parameter for the effect of a genotype containing one rare allele versus a genotype containing no rare alleles, a parameter for the effect of use of pravastatin versus the use of placebo, and parameters for the interaction effects between SNP genotypes and pravastatin use. The test of the overall model is a chi-square test with two degrees of freedom for analyses containing all three genotypes, and one degree of freedom for analyses containing two genotypes.
Effect sizes were estimated through odds ratios (pravastatin group versus placebo) for carriers of each genotype (groups of 0, 1, and 2 minor allele carriers). The effect was considered to be significant if p-value for testing whether any of the interactions between SNP genotypes and pravastatin use were <0.05. […] Odds ratios less than one indicate that the specific SNP allele has a protective effect and odds ratios greater than one indicate that the specific SNP allele has an adverse effect.

[1] = CCL11 hCV7449808, All Patients, 2 Rare Alleles, Prava, n/total 9/34
[2] = CCL11 hCV7449808, All Patients, Fatal/Non-fatal Atherosclerotic CV Disease
[3] = CCL11 hCV7449808, All Patients, Hosp. for Cardiovascular Disease
[4] = CCL11 hCV7449808, All Patients, Total Cardiovascular Disease Events
[5] = CCL11 hCV7449808, All Patients, Total Coronary Heart Disease Events
[6] = CD6 hCV2553030, All Patients, 0 Rare Alleles, Prava arm
[7] = CD6 hCV2553030, All Patients, 1 Rare Allele, Prava arm
[8] = CD6 hCV2553030, All Patients, 2 Rare Alleles, Prava arm
[9] = CHUK hCV1345898, All Patients, Hosp. for Unstable Angina
[10] = CHUK hCV1345898, All Patients, Non-fatal MI (def & prob)

SMILES: CC[C@H](C)C(=O)O[C@H]1C[C@H](O)C=C2C=C[C@H](C)[C@H](CC[C@@H](O)C[C@@H](O)CC(=O)O)[C@H]21 [pravastatin]
- Total Coronary Heart Disease Events, n/total (%) (CCL11 hCV7449808, All Patients, 2 Rare Alleles, Prava, n/total 4/34): (11.8%)
- Fatal/Non-fatal Atherosclerotic CV Disease, n/total (%) (CCL11 hCV7449808, All Patients, 2 Rare Alleles, Prava, n/total 7/34): (20.6%)
- Hosp. for Cardiovascular Disease, n/total (%) [1]: (26.5%)
- Total Cardiovascular Disease Events, n/total (%) [1]: (26.5%)
- Prava vs. Placebo Odds Ratio, 0 Rare Alleles [2]: 0.80
- Prava vs. Placebo Odds Ratio, 1 Rare Alleles [2]: 0.82
- Prava vs. Placebo Odds Ratio, 2 Rare Alleles [2]: 0.21
- Prava vs. Placebo Odds Ratio, 0 Rare Alleles [3]: 0.76
- Prava vs. Placebo Odds Ratio, 1 Rare Alleles [3]: 0.91
- Prava vs. Placebo Odds Ratio, 2 Rare Alleles [3]: 0.16
- Prava vs. Placebo Odds Ratio, 0 Rare Alleles [4]: 0.77
- Prava vs. Placebo Odds Ratio, 1 Rare Alleles [4]: 0.88
- Prava vs. Placebo Odds Ratio, 2 Rare Alleles [4]: 0.14
- Prava vs. Placebo Odds Ratio, 0 Rare Alleles [5]: 0.80
- Prava vs. Placebo Odds Ratio, 1 Rare Alleles [5]: 0.84
- Prava vs. Placebo Odds Ratio, 2 Rare Alleles [5]: 0.16
- Hosp. for Cardiovascular Disease, n/total (%) [6]: (41.5%)
- Total Cardiovascular Disease Events, n/total (%) [6]: (43.2%)
- Hosp. for Cardiovascular Disease, n/total (%) [7]: (39.9%)
- Total Cardiovascular Disease Events, n/total (%) [7]: (40.3%)
- Hosp. for Cardiovascular Disease, n/total (%) [8]: (31.3%)
- Total Cardiovascular Disease Events, n/total (%) [8]: (33.0%)
- Odds ratio pravastatin vs placebo (CD6 hCV2553030, All Patients, Hosp. for Cardiovascular Disease, 0 rare alleles): 0.81
- Odds ratio pravastatin vs placebo (CD6 hCV2553030, All Patients, Hosp. for Cardiovascular Disease, 1 rare allele): 0.78
- Odds ratio pravastatin vs placebo (CD6 hCV2553030, All Patients, Hosp. for Cardiovascular Disease, 2 rare alleles): 0.37
- Odds ratio pravastatin vs placebo (CD6 hCV2553030, All Patients, Total Cardiovascular Disease Events, 0 rare alleles): 0.83
- Odds ratio pravastatin vs placebo (CD6 hCV2553030, All Patients, Total Cardiovascular Disease Events, 1 rare allele): 0.74
- Odds ratio pravastatin vs placebo (CD6 hCV2553030, All Patients, Total Cardiovascular Disease Events, 2 rare alleles): 0.38
- Definite Nonfatal MI, n/total (%) (0 Rare Alleles, Prava arm): (5.7%)
- Fatal CHD/Definite Nonfatal MI, n/total (%) (0 Rare Alleles, Prava arm): (7.7%)
- Definite Nonfatal MI, n/total (%) (1 Rare Allele, Prava arm): (9.2%)
- Fatal CHD/Definite Nonfatal MI, n/total (%) (1 Rare Allele, Prava arm): (12.3%)
- Definite Nonfatal MI, n/total (%) (2 Rare Alleles, Prava arm): (4.8%)
- Fatal CHD/Definite Nonfatal MI, n/total (%) (2 Rare Alleles, Prava arm): (9.7%)
- Odds ratio pravastatin vs placebo (CD6 hCV25922320, All Patients, Definite Nonfatal MI, 0 rare alleles): 0.52
- Odds ratio pravastatin vs placebo (CD6 hCV25922320, All Patients, Definite Nonfatal MI, 1 rare allele): 1.12
- Odds ratio pravastatin vs placebo (CD6 hCV25922320, All Patients, Definite Nonfatal MI, 2 rare alleles): 0.63
- Odds ratio pravastatin vs placebo (CD6 hCV25922320, All Patients, Fatal CHD/Definite Nonfatal MI, 2 rare alleles): 0.92
- Non-fatal MI (def & prob), n/total (%) (CHUK hCV1345898, All Patients, 0 Rare Alleles, Prava, n/total 47/413): (11.4%)
- Hosp. for Unstable Angina, n/total (%) (CHUK hCV1345898, All Patients, 0 Rare Alleles, Prava, n/total 68/413): (16.5%)
- Non-fatal MI (def & prob), n/total (%) (CHUK hCV1345898, All Patients, 1 Rare Allele, Prava, n/total 69/734): (9.4%)
- Hosp. for Unstable Angina, n/total (%) (CHUK hCV1345898, All Patients, 1 Rare Allele, Prava, n/total 110/734): (15.0%)
- Non-fatal MI (def & prob), n/total (%) (CHUK hCV1345898, All Patients, 2 Rare Alleles, Prava, n/total 17/354): (4.8%)
- Hosp. for Unstable Angina, n/total (%) (CHUK hCV1345898, All Patients, 2 Rare Alleles, Prava, n/total 51/354): (14.4%)
- Prava vs. Placebo Odds Ratio, 0 Rare Alleles [9]: 1.38
- Prava vs. Placebo Odds Ratio, 1 Rare Alleles [9]: 0.76
- Prava vs. Placebo Odds Ratio, 2 Rare Alleles [9]: 0.59
- Prava vs. Placebo Odds Ratio, 0 Rare Alleles [10]: 0.86
- Prava vs. Placebo Odds Ratio, 1 Rare Alleles [10]: 0.77
- Prava vs. Placebo Odds Ratio, 2 Rare Alleles [10]: 0.34
- Fatal/Nonfatal MI (def & prob), n/total (%) (0 Rare Alleles, Prava arm): (10.6%)
- MI (Fatal/Nonfatal), n/total (%) (0 Rare Alleles, Prava arm): (10.7%)
- Nonfatal MI (def & prob), n/total (%) (0 Rare Alleles, Prava arm): (9.6%)
- Fatal/Nonfatal MI (def & prob), n/total (%) (1 Rare Allele, Prava arm): (8.2%)
- MI (Fatal/Nonfatal), n/total (%) (1 Rare Allele, Prava arm): (8.6%)
- Nonfatal MI (def & prob), n/total (%) (1 Rare Allele, Prava arm): (7.7%)
- Fatal/Nonfatal MI (def & prob), n/total (%) (2 Rare Alleles, Prava arm): (4.1%)
- MI (Fatal/Nonfatal), n/total (%) (2 Rare Alleles, Prava arm): (4.1%)
